Assay [1] addresses T1, hM5 mAcChR (Homo sapiens, UniProt P08912).
T1 sequence (P08912 1-532): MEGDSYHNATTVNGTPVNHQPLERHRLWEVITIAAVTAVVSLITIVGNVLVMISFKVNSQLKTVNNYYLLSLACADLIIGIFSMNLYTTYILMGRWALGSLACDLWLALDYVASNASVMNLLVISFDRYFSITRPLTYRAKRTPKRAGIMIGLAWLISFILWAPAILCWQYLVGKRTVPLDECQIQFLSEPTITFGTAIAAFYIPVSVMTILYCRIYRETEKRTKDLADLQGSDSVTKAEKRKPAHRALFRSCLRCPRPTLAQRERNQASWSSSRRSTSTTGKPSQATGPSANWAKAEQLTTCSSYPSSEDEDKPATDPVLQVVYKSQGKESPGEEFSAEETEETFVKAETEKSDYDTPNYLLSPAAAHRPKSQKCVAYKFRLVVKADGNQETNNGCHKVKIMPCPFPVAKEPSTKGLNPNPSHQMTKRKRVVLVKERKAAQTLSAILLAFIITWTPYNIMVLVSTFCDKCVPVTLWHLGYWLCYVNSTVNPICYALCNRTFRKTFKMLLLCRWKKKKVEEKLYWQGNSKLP
Nature of the assay: [3H]NMS binding to membranes from CHO-K1 cells expressing hM5.

Assay [2] deals with T2, hM1 mAcChR (Homo sapiens, UniProt P11229).
T2 sequence (P11229 1-460): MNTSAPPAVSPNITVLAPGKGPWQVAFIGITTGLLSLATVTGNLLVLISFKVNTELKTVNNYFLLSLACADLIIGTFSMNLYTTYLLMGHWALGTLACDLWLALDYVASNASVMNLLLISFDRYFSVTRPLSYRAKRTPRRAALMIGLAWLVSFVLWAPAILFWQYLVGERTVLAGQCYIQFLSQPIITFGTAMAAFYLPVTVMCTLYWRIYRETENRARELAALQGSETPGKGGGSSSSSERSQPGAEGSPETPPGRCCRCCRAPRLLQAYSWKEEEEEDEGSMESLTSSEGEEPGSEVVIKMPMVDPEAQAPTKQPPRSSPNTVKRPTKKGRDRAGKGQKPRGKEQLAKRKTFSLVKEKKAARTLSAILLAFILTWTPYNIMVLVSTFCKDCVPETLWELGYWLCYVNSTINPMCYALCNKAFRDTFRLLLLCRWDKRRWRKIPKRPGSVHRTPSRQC
Nature of the assay: [3H]N-methylscopolamine. Type of assay: binding.

We go through twelve compounds from publication PMC3676450 (Journal of medicinal chemistry, 2013).

On to `CCN1CCC(c2ccccc2)=C(C(=O)OCCc2cccc(OC)c2)C1` [Compound 18], for which, in assay [1], the “increase in binding affinity at M5 relative to compound 8” value is on record as 3 fold and the “increase in binding affinity at M5 relative to compound 17” value came to 8 fold.
As for `CCN1CCC(c2ccccc2)=C(C(=O)OCCc2ccc(S(C)(=O)=O)cc2)C1` [Compound 27], the “binding affinity at M1 receptor (in words)” value in assay [2] is “little affinity”. Besides, the “binding affinity at M5 receptor (in words)” value in assay [1] is on record as “little affinity”.
Consider `CCN1CCC(c2ccccc2)=C(C(=O)OCCc2ccc3c(c2)CCO3)C1` [Compound 28], for which, in assay [1], the M1/M5 is listed as 1,390 (6.0), the M2/M5 is recorded as >100,000 (>435), the M3/M5 is 31,100 (135) and the M4/M5 is recorded as 10,500 (46).
`COc1ccc(CCOC(=O)C2=C(c3ccccc3)CCN(Cc3ccc(OC)cc3)C2)cc1` [Compound 40]: the “binding affinity at M1 receptor (in words)” value in assay [2] is reported as “eliminated affinity”. Also, in assay [1], the “binding affinity at M5 receptor (in words)” value is given as “eliminated affinity”.
For `COc1ccc(CCOC(=O)C2=C(c3ccccc3)CCN(C)C2)cc1` [Compound 42], the “increase in binding affinity at M1 relative to compound 8” value in assay [2] came to 8 fold. The “increase in binding affinity at M5 relative to compound 8” value in assay [1] is listed as 14 fold.
On to `CCCN1CCC(c2ccccc2)=C(C(=O)OCCc2ccc(OC)cc2)C1` [Compound 43], for which the “binding affinity at M1 receptor (in words)” value in assay [2] is recorded as “eliminated affinity”. Besides, in assay [1], the “binding affinity at M5 receptor (in words)” value is listed as “eliminated affinity”.
`CCCCN1CCC(c2ccccc2)=C(C(=O)OCCc2ccc(OC)cc2)C1` [Compound 44]: the “binding affinity at M1 receptor (in words)” value in assay [2] is recorded as “eliminated affinity”. The “binding affinity at M5 receptor (in words)” value in assay [1] is given as “eliminated affinity”.
For the compound `CN1CCC(c2ccccc2)=C(C(=O)OCCc2ccc3c(c2)CCO3)C1` [Compound 45], in assay [1], the M1/M5 is listed as 290 (4.8), the M2/M5 is recorded as 1,170 (20), the M3/M5 is recorded as 2,840 (47) and the M4/M5 is 1,890 (32).
For the compound `CN1CCC(c2ccccc2)=C(C(=O)OCCc2cccc3ccccc23)C1` [Compound 57], in assay [1], the M1/M5 was 24,400 (4.8), the M2/M5 was >100,000 (>20), the M3/M5 is >100,000 (>20) and the M4/M5 is listed as >100,000 (>20).
With `CN1CCC(c2ccccc2F)=C(C(=O)OCCc2ccc3c(c2)CCO3)C1` [Compound 63], in assay [1], the M1/M5 is on record as 5,270 (7.1), the M2/M5 is on record as 540 (0.7), the M3/M5 is 4,890 (6.6) and the M4/M5 is reported as 5,740 (7.8).
On to `COc1ccc(CCOC(=O)C2=C(c3cccc(F)c3)CCN(C)C2)cc1OC` [Compound 66], for which, in assay [1], the M2/M5 is >100,000 (>30), the M3/M5 is >100,000 (>30) and the M4/M5 was >100,000 (>30).
In the case of `CN1CC=C(c2ccccc2C(=O)OCCc2ccc3c(c2)CCO3)CC1` [Compound 89], in assay [2], the “binding affinity at M1 receptor (in words)” value is “complete loss of binding affinity”. Also, the “binding affinity at M5 receptor (in words)” value in assay [1] is on record as “complete loss of binding affinity”.
